Source: US20240342106A1, “NANOPARTICLES AND USES THEREOF FOR TREATMENT OF HUMAN IMMUNODEFICIENCY VIRUS” (UNIVERSITY OF MIAMI, priority 2021, published 2024)

How the values were obtained:
microglia cells [1] = test: ROS production assay (DCFDA) in microglia cells; assay type: cell-based, Human; conditions: 1 μM of free ARVs or NPs with respect to the loaded drug, 24 h
Description: ROS Production Assay in Microglia Cells: The ROS generation in the microglia cells were determined using DCFDA assay. Microglia cells were plated in the white wall coated 96-well plate with density of 20,000 cells per well and grown for 16 h. The SQV, EFV, DRV, DTG, EVG and their nanoformulations were added to the cells at concentration of 1 μM with respect to the ARTs for 24 h. After 24 h, the media was collected and used to determine IL-1β, an inflammation maker using commercially available kit. The DCFDA solution was made in media at the concentration of 100 μM. 100 μL of this solution was added to each well and cells were incubated for 30 min. […] The obtained values were normalized using BCA assay.

microglia cells [2] = test: Seahorse MitoStress assay; conditions: 500 μM, 24 h

SMILES	ROS generation (microglia cells [1])	ATP production (microglia cells [2])	basal respiration (microglia cells [2])	maximal respiration (microglia cells [2])
CC(C)CN(C[C@@H](O)[C@H](Cc1ccccc1)NC(=O)O[C@H]1CO[C@H]2OCC[C@H]21)S(=O)(=O)c1ccc(N)cc1 [Darunavir]	increased ROS significantly			
C[C@@H]1CCO[C@H]2Cn3cc(C(=O)NCc4ccc(F)cc4F)c(=O)c(O)c3C(=O)N12 [Dolutegravir]	increased ROS significantly			
O=C1Nc2ccc(Cl)cc2[C@@](C#CC2CC2)(C(F)(F)F)O1 [Efavirenz]	increased ROS significantly			
COc1cc2c(cc1Cc1cccc(Cl)c1F)c(=O)c(C(=O)O)cn2[C@H](CO)C(C)C [Elvitegravir]	increased ROS significantly			
COC(=O)[C@H]1[C@@H](OC(=O)c2ccccc2)C[C@@H]2CC[C@H]1N2C [cocaine]		substantially decreased	substantially decreased	substantially decreased
CN[C@@H](C)Cc1ccccc1 [meth, methamphetamine]		substantially decreased	substantially decreased	substantially decreased
